In ChEMBL document CHEMBL1145671, “Cactus Alkaloids. LIII. Coryphanthine and O-Methyl-Candicine, Two New Quaternary Alkaloids from Coryphantha greenwoodii” (J Nat Prod, 1983) one finds LC50 and IC50 data, which are given here for 9 compounds.

Where a name gives a salt, the structure may show the parent alone.

By LC50 is commonly meant the concentration that kills 50% of the test population. The term IC50 denotes the point on the concentration scale where inhibition reaches its midpoint.

Test system in the first data set: not listed separately
The data set is described as follows: (§1) Toxicity against brine shrimp assessed as impaired swimming movements after 24 hrs. Type of data set: organism-based, Artemia. The following applies: artemia, in vivo.
With `CO[C@H](C[N+](C)(C)C)c1ccccc1`, the median lethal concentration (LC50) at 24 h was determined as 354 µg/mL. Turning to `COc1ccc(CC[N+](C)(C)C)cc1`, the 50% lethal concentration (LC50) at 24 h turned out to be 425 µg/mL.

Take `COC(C[N+](C)(C)C)c1ccccc1` (racemic): the 50% lethal concentration (LC50) at 24 h was 368 µg/mL. In the case of `C[N+](C)(C)CCc1ccc(O)cc1` [CANDICINE CHLORIDE], the median lethal concentration (LC50) at 24 h turned out to be 923 µg/mL. On the same count and under the same terms, in the case of `O=C1C[C@@H]2OCC=C3CN4CC[C@]56c7ccccc7N1[C@H]5[C@H]2[C@H]3C[C@H]46` [STRYCHNINE SULFATE] it was 164 µg/mL; in that of `CN1CCC[C@H]1c1cccnc1` [NICOTINE HYDROCHLORIDE], 158 µg/mL.

A further data set has as its system Artemia. Described as §1. Format: organism-based. The following applies: Artemia, 24 h.
Regarding `C[N+](C)(C)CC(O)c1ccccc1.[Cl-]` (centres undefined), the IC50 was over 1000 µg/mL.

Regarding `C[N+](C)(C)CCO.[Cl-]` [CHOLINE CHLORIDE], the IC50 is over 1000 µg/mL.

Still in this data set, the particulars now being: artemia, in vivo, 24 h.
Consider `CO[C@H](C[N+](C)(C)C)c1ccccc1.[Cl-]` [CORYPHANTHINE CHLORIDE], for which the LC50 was determined as 494 µg/mL.
